pIC50: −log10 of the molar value.
Molecular target: T1, Interleukin-1 receptor-associated kinase 4 (Homo sapiens, UniProt Q9NWZ3)
T1 sequence (Q9NWZ3 whole entry): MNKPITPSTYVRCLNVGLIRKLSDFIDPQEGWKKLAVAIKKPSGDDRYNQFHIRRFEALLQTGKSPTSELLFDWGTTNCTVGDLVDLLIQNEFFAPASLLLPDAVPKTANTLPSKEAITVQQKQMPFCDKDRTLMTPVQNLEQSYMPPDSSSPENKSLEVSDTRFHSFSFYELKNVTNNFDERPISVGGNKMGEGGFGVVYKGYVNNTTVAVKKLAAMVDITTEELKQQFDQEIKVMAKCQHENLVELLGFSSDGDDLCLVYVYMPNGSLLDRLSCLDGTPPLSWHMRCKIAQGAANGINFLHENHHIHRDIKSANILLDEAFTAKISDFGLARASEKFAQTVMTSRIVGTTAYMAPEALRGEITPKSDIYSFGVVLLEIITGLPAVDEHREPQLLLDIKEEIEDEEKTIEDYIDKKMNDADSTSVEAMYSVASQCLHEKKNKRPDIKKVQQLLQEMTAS
Experiment: Screening Assay Against IRAK4 with ATP
Experimental: Then prepare compounds for testing: Dilute the compound to 50× of the final desired highest inhibitor concentration in reaction by 100% DMSO. […] Transfer 10 μL of the compound from the source plate to a new 96-well plate (intermediate plate) and add 90 μL of Ix kinase buffer. Shake the mixture on the intermediate plate for 10 min. Transfer 5 μL of each well from the 96-well intermediate plate to a 384-well plate in duplicates. Add 10 μL of 2.5× enzyme solution to each well of the 384-well assay plate and incubate at room temperature for 10 min. Add 10 μL, of 2.5×FAM-labeled peptide and ATP solution and incubate at 28° C. for a period of time.

pIC50: 7.35
Structure (SMILES): Cn1cc(-c2cccc(NC(=O)c3cc4oc(N5CCOCC5)nc4nc3N3CCOCC3)n2)cn1 [US20250074919, Example A2]

— BindingDB's records for patent US20250074919 (Accro Bioscience (HK), 2025)
